Reference: patent publication EP0679645A1, “Pharmacologically active CNS pyridmidin compounds” (THE WELLCOME FOUNDATION LIMITED, priority 1990, dated 1991)

Tests used:
[1] = system: veratrine-evoked release of glutamate; test: Inhibition of veratrine-evoked release of glutamate from rat brain slices; type: cell-based; conditions: P95 limits in brackets, read-out: IC₅₀(µM) Glutamate Release (P95 limits)
Experimental: (§1) Compounds according to the invention were tested for their effect on veratrine-evoked release of glutamate from rat brain slices according to the protocol described in Epilepsia 27(5): 490-497, 1986. The protocol for testing for inhibition of DHFR activity was a modification of that set out in Biochemical Pharmacology Vol. 20 pp 561-574, 1971.
(§2) The results are given in Table 1, the IC₅₀ being the concentration of compound to cause 50% inhibition of (a) veratrine-evoked release of glutamate and (b) of DHFR enzyme activity.

[2] = biological target: T1, Rat Liver DHFR (Rattus norvegicus, UniProt Q920D2); test: Inhibition of rat liver DHFR enzyme activity; type: biochemical; conditions: P95 limits in brackets, read-out: IC₅₀(µM) Rat Liver DHFR (P95 limits)
T1 construct: from tissue; host or cells: rat liver
T1 sequence (Q920D2 1-187): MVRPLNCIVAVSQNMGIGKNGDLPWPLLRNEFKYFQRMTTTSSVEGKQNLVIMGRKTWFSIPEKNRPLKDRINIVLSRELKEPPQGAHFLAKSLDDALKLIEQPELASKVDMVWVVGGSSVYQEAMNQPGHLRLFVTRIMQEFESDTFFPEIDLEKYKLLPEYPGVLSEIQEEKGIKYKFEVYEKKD
Experimental: as §1, §2

[3] = Half-life in the rat; type: in vivo; conditions: statement in words

SMILES: C[C@@H]1CN(c2ncc(-c3cc(Cl)cc(Cl)c3Cl)c(N)n2)C[C@H](C)N1 [Compound 16, cis 4-Amino-2-(3,5-dimethyl-1-piperazinyl)-5-(2,3,5-trichlorophenyl)pyrimidine]
- IC50 [1]: 10 µM
- IC50 [2]: > 100 µM

SMILES: CCCCN1CCN(c2ncc(-c3cc(Cl)cc(Cl)c3Cl)c(N)n2)CC1 [Compound 28, 4-Amino-2-(4-n-butyl-1-piperazinyl)-5-(2,3,5-trichlorophenyl)pyrimidine]
- IC50 [1]: < 10 µM
- IC50 [2]: > 100 µM

SMILES: C[N+]1([O-])CCN(c2ncc(-c3cc(Cl)cc(Cl)c3Cl)c(N)n2)CC1 [Compound 18, 4-Amino-2-(4-methyl-4-oxide-1-piperazinyl)-5-(2,3,5-trichlorophenyl)pyrimidine]
- IC50 [1]: > 10 µM
- IC50 [2]: > 100 µM

SMILES: Cc1nc(N)nc(N)c1-c1cc(Cl)c(Cl)c(Cl)c1 [Compound 5, 2,4-Diamino-5-(3,4,5-trichlorophenyl)-6-methyl pyrimidine]
- IC50 [1]: < 10 µM
- IC50 [2]: < 100 µM

SMILES: CN1CCN(c2nc(N)c(-c3cc(Cl)cc(Cl)c3)c(C(F)(F)F)n2)CC1 [Compound 14, 4-Amino-5-(3,5-dichlorophenyl)-2-(4-methyl-1-piperazinyl)-6-trifluoromethyl pyrimidine]
- IC50 [1]: 0.137 µM
- IC50 [2]: > 100 µM

SMILES: CN(C)S(=O)(=O)c1c(Cl)cc(-c2cnc(N)nc2N)c(Cl)c1Cl [Compound 12, 2,4-Diamino-5[4-(N',N'-dimethylsulphamoyl)-2,3,5-trichlorophenyl]pyrimidine]
- IC50 [1]: < 10 µM
- IC50 [2]: 13.8 µM

SMILES: C[N+]1([O-])CCN(c2nc(N)c(-c3cc(Cl)cc(Cl)c3Cl)c(C(F)(F)F)n2)CC1 [Compound 10, 4-Amino-2-(4-methyl-4-oxide-1-piperazinyl)-5-(2,3,5-trichlorophenyl)-6-trifluoromethyl-pyrimidine]
- IC50 [1]: > 10 µM
- IC50 [2]: > 100 µM

SMILES: Nc1nc(N2CCN(C3CC3)CC2)ncc1-c1cc(Cl)cc(Cl)c1Cl [Compound 31, 4-Amino-2-(4-cyclopropyl-1-piperazinyl)-5-(2,3,5-trichlorophenyl)pyrimidine]
- IC50 [1]: 10 µM
- IC50 [2]: > 100 µM

SMILES: CC(C)N1CCN(c2ncc(-c3cc(Cl)cc(Cl)c3Cl)c(N)n2)CC1 [Compound 30, 4-Amino-2-(4-isopropyl-1-piperazinyl)-5-(2,3,5-trichlorophenyl)pyrimidine]
- IC50 [1]: < 10 µM
- IC50 [2]: 100 µM

SMILES: Nc1ncc(-c2cccc(Cl)c2Cl)c(N2CCOCC2)n1 [Compound 21, 2-Amino-5-(2,3-dichlorophenyl)-4-(N-morpholino)pyrimidine]
- IC50 [1]: 10 µM
- IC50 [2]: > 100 µM

SMILES: CCN1CCN(c2nc(N)c(-c3cc(Cl)cc(Cl)c3)c(C(F)(F)F)n2)CC1 [Compound 32, 4-Amino-2-(4-ethyl-1-piperazinyl)-5-(3,5-dichlorophenyl)-6-trifluoromethyl pyrimidine]
- IC50 [1]: 2.43 µM
- IC50 [2]: > 100 µM

SMILES: Cc1nc(N)nc(N)c1-c1cc(Cl)c(N)c(Cl)c1 [Compound 26, 2,4-Diamino-5-(3,5-dichloro-4-aminophenyl)-6-methyl pyrimidine]
- IC50 [1]: < 10 µM
- IC50 [2]: 0.034 µM

SMILES: Nc1nc(N)c(-c2cc(Cl)c(N)c(Cl)c2)c(C(F)(F)F)n1 [Compound 27, 2,4-Diamino-5-(3,5-dichloro-4-aminophenyl)-6-trifluoromethyl pyrimidine]
- IC50 [1]: 10 µM
- IC50 [2]: 1.54 µM

SMILES: Cc1nc(N2CCN(C)CC2)nc(N)c1-c1cc(Cl)c(Cl)c(Cl)c1 [Compound 4, 4-Amino-2-(4-methyl-1-piperazinyl)-6-methyl-5-(3,4,5-trichlorophenyl)pyrimidine]
- IC50 [1]: < 10 µM
- IC50 [2]: 100 µM

SMILES: Nc1ncc(-c2cc(Cl)c(N)c(Cl)c2Cl)c(N)n1 [Compound 3, 2,4-Diamino-5-(4-amino-2,3,5-trichlorophenyl)pyrimidine]
- IC50 [1]: 2.5 µM
- IC50 [2]: > 100 µM

SMILES: CC(C)Nc1ncc(-c2cc(Cl)cc(Cl)c2Cl)c(N)n1 [Compound 7, 4-Amino-2-(2-iso-propylamino)-5-(2,3,5-trichlorophenyl)pyrimidine]
- IC50 [1]: < 10 µM
- IC50 [2]: > 100 µM

SMILES: CCN1CCN(c2ncc(-c3cc(Cl)cc(Cl)c3Cl)c(N)n2)CC1 [Compound 29, 4-Amino-2-(4-ethyl-1-piperazinyl)-5-(2,3,5-trichlorophenyl)pyrimidine]
- IC50 [1]: 2.56 µM
- IC50 [2]: > 100 µM

SMILES: CN1CCN(c2nc(N)ncc2-c2cccc(Cl)c2Cl)CC1 [Compound 20, 2-Amino-5-(2,3-dichlorophenyl)-4-(4-methyl-1-piperazinyl)pyrimidine]
- IC50 [1]: 10 µM
- IC50 [2]: > 100 µM

SMILES: COCc1nc(N2CCN(C)CC2)nc(N)c1-c1cc(Cl)cc(Cl)c1 [Compound 11, 4-Amino-5-(3,5-dichlorophenyl)-6-methoxymethyl-2-(4-methyl-1-piperazinyl)pyrimidine]
- IC50 [1]: < 10 µM
- IC50 [2]: > 100 µM

SMILES: Cc1nc(N)nc(N)c1-c1c(Cl)ccc(Cl)c1Cl [Compound 2, 2,4-Diamino-6-methyl-5-(2,3,6-trichlorophenyl)pyrimidine]
- IC50 [1]: < 10 µM
- IC50 [2]: > 100 µM

SMILES: CN1CCN(c2ncc(-c3cc(Cl)cc(Cl)c3)c(N)n2)CC1 [Compound 8, 4-Amino-5-(3,5-dichlorophenyl)-2-(4-methyl-1-piperazinyl)pyrimidine]
- IC50 [1]: 0.27 µM
- half-life in the rat [3]: long half-life
- IC50 [2]: > 100 µM

SMILES: CCN(CC)c1ncc(-c2cc(Cl)cc(Cl)c2Cl)c(N)n1 [Compound 6, 4-Amino-2-diethylamino-5-(2,3,5-trichlorophenyl)pyrimidine]
- IC50 [1]: 10 µM
- IC50 [2]: > 100 µM

SMILES: Cc1nc(N)nc(N)c1-c1cc(Cl)cc(Cl)c1[N+](=O)[O-] [Compound 19, 2,4-Diamino-5-(3,5-dichloro-2-nitrophenyl)-6-methyl-pyrimidine]
- IC50 [1]: < 10 µM
- IC50 [2]: 5.56 µM

SMILES: Nc1ncc(-c2cc(Cl)c(I)c(Cl)c2Cl)c(N)n1 [Compound 9, 2,4-Diamino-5-(4-iodo-2,3,5-trichlorophenyl)pyrimidine]
- IC50 [1]: < 10 µM
- IC50 [2]: > 100 µM

SMILES: Nc1ncc(-c2cc(Cl)c(N)c(Cl)c2)c(N)n1 [Compound 25, 2,4-Diamino-5-(3,5-dichloro-4-aminophenyl)pyrimidine]
- IC50 [1]: > 10 µM
- IC50 [2]: 0.034 µM

SMILES: Nc1nc(N)c(-c2cc(Cl)cc(Cl)c2)c(C(F)(F)F)n1 [Compound 1, 2,4-Diamino-5-(3,5-dichlorophenyl)-6-trifluoromethyl pyrimidine]
- IC50 [1]: < 10 µM
- IC50 [2]: 4.59 µM

SMILES: Nc1nc(N2CCN(Cc3ccccc3)CC2)ncc1-c1cc(Cl)cc(Cl)c1Cl [Compound 22, 4-Amino-2-(4-benzyl-1-piperazinyl)-5-(2,3,5-trichlorophenyl)pyrimidine]
- IC50 [1]: > 10 µM
- IC50 [2]: < 100 µM

SMILES: CCCN1CCN(c2ncc(-c3cc(Cl)cc(Cl)c3Cl)c(N)n2)CC1 [Compound 17, 4-Amino-2-(4-n-propyl-1-piperazinyl)-5-(2,3,5-trichlorophenyl)pyrimidine]
- IC50 [1]: 2.17 µM
- IC50 [2]: > 100 µM

SMILES: Nc1ncc(-c2cc(Cl)c(Cl)c(Cl)c2Cl)c(N)n1 [Compound 15, 2,4-Diamino-5-(2,3,4,5-tetrachlorophenyl)pyrimidine]
- IC50 [1]: < 10 µM
- IC50 [2]: > 100 µM
